From patent publication US10633704B2, “Diagnostic and immunotherapy compositions and methods for disease states mediated by inhibitor-resistant CD8 T-cells” (priority 2010, dated 2020)
Entries after “also recorded” stand apart in the source; their conditions may differ.

System: CD8bm12-1 T cell clone
Experiment: Proliferation assay (3H-thymidine) of CsA/RAPA-resistant CD8 T cell clone CD8bm12-1 activated by immobilized anti-CD3 without or with anti-CD28
Type: cell-based, mouse (C57BL/6)
Description: Proliferation assays were done with anti-CD3 (145-2Cl 1) without or with anti-CD28 (37.51). Antibodies in 50 μl of PBS/well were used to coat 96-well tissue culture plates (Costar) overnight at 4° C. Antibodies were shaken off and wells washed 1× with 150 μl of RPMI complete media prior to their use in proliferation assays. Experimental wells were pulsed with 0.5 μCi/well ^3H-thymidine (ICN, Costa Mesa, Calif.) for 10-12 hours at 24-36 or 36-48 hours of the culture cycle. Cyclosporine A (Sigma Chemical Co.; St. Louis, Mo.) dissolved in 200 proof ethanol and CH-223191 (Calbiochem; San Diego, Calif.) dissolved in dimethylsulfoxide were used at indicated concentrations. The no treatment controls in each experiment included vehicle controls for both ethanol and dimethylsulfoxide.
FIGS. 6A and 6B show proliferation plots of CD8bm1 (▪) and CD8bm12-1 (●), both activated by immobilized anti-CD3 and exposed to a full range of cyclosporine A (the results shown in FIGS. 6A and 6B result from two separate experiments conducted).

Compound: Cc1ccccc1N=Nc1ccc(NC(=O)c2ccnn2C)c(C)c1 [CH-223191]
- effect on proliferation of CD8bm12-1 (media with 1 ug/ml CsA, anti-CD3, CH-223191 3 uM): no effect
- effect on proliferation of CD8bm12-1 (media with 1 ug/ml CsA, anti-CD3, CH-223191 10 uM): moderate inhibitory effect
- effect on proliferation of CD8bm12-1 (media with 1 ug/ml CsA, anti-CD3, CH-223191 30 uM): dramatic inhibitory effect; also recorded: completely blocked
- effect on proliferation of CD8bm12-1 (media with 1 ug/ml CsA, anti-CD3 and anti-CD28, CH-223191 30 uM): completely blocked proliferation
- effect on proliferation of CD8bm12-1 (media without CsA, anti-CD3, CH-223191 at 30 uM, 10 uM or 3 uM): no discernable negative effect
- effect on proliferation of CD8bm12-1 (media without CsA, anti-CD3 and anti-CD28, CH-223191): little discernable effect
